# Results reported in the supplement of paper PMC11208160.
# Experiment: recombinant barcode read abundance after kanamycin selection (control-corrected) (log10(CPM+1)); higher = more efficient recombination; sequences stand for … in AGTGCAGAGAAAATCGGCCAGTTTTCTCTGCCTGCAGTCCGCATGCCGT…AGATTTATGCAGCGGACTGCCTTTCTCCCAAAGTGATAAACCGGACAGTATCATGGACCGGTTTTCCCGGTAATCCGTATTTGCAAGGTTGGTTTCACT; site = the 11-nt target
# Description: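 Pooled E. coli target-specificity screen for the IS621 bridge recombinase. Each library plasmid pairs an 11-nt target (CT core) with a bridge RNA whose target-binding loop (9-nt LTG + 4-nt RTG) is reprogrammed; the rest of the 177-nt WT IS621 bridge RNA scaffold is fixed. The plasmid is co-electroporated with a WT donor plasmid; recombinase is induced with 0.1 mM IPTG and recombinants are selected on kanamycin. Recombinant barcodes are sequenced, converted to CPM, averaged over two biological replicates and corrected by the unselected control CPM. Molecule = full bridge RNA written as DNA: LTG = specificity nt 1-9, RTG = reverse complement of specificity nt 8-11, in the WT scaffold.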
# 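Also: IS621 recombinase and bridge RNA in Escherichia coli cells.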
row,Sequence,recombinant barcode read abundance (log10)
1,AGCAGAGCTTGGGTTCTAACCTGTTGCGG (site AGCAGAGCTCA),1.12
2,AGCAGAGCTTGGGTTCTAACCTGTTGCGG (site AGCAGAGCTCC),1.95
3,AGCAGAGCTTGGGTTCTAACCTGTTGCGG (site AGCAGAGCTCG),0.0598
4,AGCAGAGCTTGGGTTCTAACCTGTTGCGG (site AGCAGAGCTCT),1.1
5,AGCAGCCCTTGGGTTCTAACCTGTTGCAG (site AGCAGCCCTCT),1.72
6,AGCAGCCCTTGGGTTCTAACCTGTTGCAG (site GTTCCAGCTAG),0.0963
7,AGCATAACTTGGGTTCTAACCTGTTGCCT (site AGCATAACTAG),0.187
8,AGCATAACTTGGGTTCTAACCTGTTGCCT (site AGGAGAACTAG),0.261
9,AGCCACGCTTGGGTTCTAACCTGTTGCCT (site AGCCACACTAG),0.124
10,AGCCACGCTTGGGTTCTAACCTGTTGCCT (site AGCCACCCTAG),0.27
11,AGCCACGCTTGGGTTCTAACCTGTTGCCT (site AGCCACGCTAG),1.11
12,AGCCACGCTTGGGTTCTAACCTGTTGCCT (site AGCCACTCTAG),0.153
13,AGCCATCCTTGGGTTCTAACCTGTTGCAT (site AGCCATCCTAT),0.723
14,AGCCATCCTTGGGTTCTAACCTGTTGCAT (site TGCCATCCTAT),0.0638
15,AGCCCGCCTTGGGTTCTAACCTGTTGCCT (site AGCCCGCCTAG),0.358
16,AGCCCGCCTTGGGTTCTAACCTGTTGCCT (site CGCCCGCCTAG),0.39
17,AGCCCGCCTTGGGTTCTAACCTGTTGCCT (site GGCCCGCCTAG),0.178
18,AGCCCGCCTTGGGTTCTAACCTGTTGCCT (site TGCCCGCCTAG),0.157
19,AGCCCTTCTTGGGTTCTAACCTGTTGCTT (site AGCCCTTCTAA),0.083
20,AGCCCTTCTTGGGTTCTAACCTGTTGCTT (site GTAGGGACTCG),0.0698
21,AGCCTCCCTTGGGTTCTAACCTGTTGCCA (site AGCCTCCCTTG),0.663
22,AGCCTCCCTTGGGTTCTAACCTGTTGCCA (site CAGGGGTCTAT),0.121

row,Sequence,recombinant barcode read abundance (log10)
1,AGCGAGGCTTGGGTTCTAACCTGTTGCCT (site AGCGAAGCTAG),0.0233
2,AGCGAGGCTTGGGTTCTAACCTGTTGCCT (site AGCGAGGCTAG),0.188
3,AGCGCGCCTTGGGTTCTAACCTGTTGCTG (site AGCGCGCCTCA),0.224
4,AGCGCGCCTTGGGTTCTAACCTGTTGCTG (site GAGTACACTGC),0.00819
5,AGCGCTCCTTGGGTTCTAACCTGTTGCCT (site AACGCTCCTAG),0.0472
6,AGCGCTCCTTGGGTTCTAACCTGTTGCCT (site ACCGCTCCTAG),0.305
7,AGCGCTCCTTGGGTTCTAACCTGTTGCCT (site AGCGCTCCTAG),0.68
8,AGCGCTCCTTGGGTTCTAACCTGTTGCCT (site ATCGCTCCTAG),0
9,AGCGGCCCTTGGGTTCTAACCTGTTGCCT (site AGCGGACCTAG),0.466
10,AGCGGCCCTTGGGTTCTAACCTGTTGCCT (site AGCGGCCCTAG),1.26
11,AGCGGCCCTTGGGTTCTAACCTGTTGCCT (site AGCGGGCCTAG),0.0662
12,AGCGGCCCTTGGGTTCTAACCTGTTGCCT (site AGCGGTCCTAG),0.0761
13,AGCTAATCTTGGGTTCTAACCTGTTGCTT (site AGCTAATCTAA),0.0369
14,AGCTAATCTTGGGTTCTAACCTGTTGCTT (site GAGCTGCCTTG),0.0324
15,AGCTATGCTTGGGTTCTAACCTGTTGCCT (site AGCTATGCTAG),0.317
16,AGCTATGCTTGGGTTCTAACCTGTTGCCT (site GAAATACCTCC),0.138
17,AGCTGTCCTTGGGTTCTAACCTGTTGCAG (site AGCTGTCCTCT),0.273
18,AGCTGTCCTTGGGTTCTAACCTGTTGCAG (site TAGGCGGCTAC),0.0556
19,AGCTTAGCTTGGGTTCTAACCTGTTGCCA (site AGCTTAGCTAG),0.484
20,AGCTTAGCTTGGGTTCTAACCTGTTGCCA (site AGCTTAGCTCG),0.365
21,AGCTTAGCTTGGGTTCTAACCTGTTGCCA (site AGCTTAGCTGG),0.463
22,AGCTTAGCTTGGGTTCTAACCTGTTGCCA (site AGCTTAGCTTG),0.387

row,Sequence,recombinant barcode read abundance (log10)
1,AGGAACACTTGGGTTCTAACCTGTTGCCT (site AGAAACACTAG),1.36
2,AGGAACACTTGGGTTCTAACCTGTTGCCT (site AGGAACACTAG),1.94
3,AGGAACACTTGGGTTCTAACCTGTTGCTG (site AGGAACACTAA),0.803
4,AGGAACACTTGGGTTCTAACCTGTTGCTG (site AGGAACACTCA),2.65
5,AGGAACTCTTGGGTTCTAACCTGTTGCAT (site AGGAACTCTAT),2.44
6,AGGAACTCTTGGGTTCTAACCTGTTGCAT (site GGGAACCCTAT),0.0839
7,AGGAACTCTTGGGTTCTAACCTGTTGCTT (site AGGAACTCTAA),1.87
8,AGGAACTCTTGGGTTCTAACCTGTTGCTT (site AGGAGCTCTTA),0.0561
9,AGGAAGACTTGGGTTCTAACCTGTTGCCA (site AGGAAGACTTG),0.948
10,AGGAAGACTTGGGTTCTAACCTGTTGCCA (site AGGCAGACTTG),0.0465
11,AGGAAGACTTGGGTTCTAACCTGTTGCCA (site AGGGAGACTTG),0.239
12,AGGAAGACTTGGGTTCTAACCTGTTGCCA (site AGGTAGACTTG),0.412
13,AGGAAGACTTGGGTTCTAACCTGTTGCCG (site AGGAAGACTCC),0.883
14,AGGAAGACTTGGGTTCTAACCTGTTGCCG (site AGGAAGACTCG),1.95
15,AGGACCACTTGGGTTCTAACCTGTTGCCA (site AGGACCACTTG),0.868
16,AGGACCACTTGGGTTCTAACCTGTTGCCA (site ATGACCGCTTG),0.0948
17,AGGAGCCCTTGGGTTCTAACCTGTTGCGA (site AGGAGCCCTTC),2.84
18,AGGAGCCCTTGGGTTCTAACCTGTTGCGA (site CGGAGCCCTCC),0.0589
19,AGGAGTCCTTGGGTTCTAACCTGTTGCGT (site AGCAGTCCTAC),0.182
20,AGGAGTCCTTGGGTTCTAACCTGTTGCGT (site AGGAGTCCTAC),2.57
21,AGGAGTCCTTGGGTTCTAACCTGTTGCTG (site AGGAATCCTAA),1.57
22,AGGAGTCCTTGGGTTCTAACCTGTTGCTG (site AGGAGTCCTCA),2.08
